Laboratory results as given in patent US8993544B2, “Carbamoylphosphonates as inhibitors and uses thereof” (priority 2009, dated 2015).
pIC50: −log10 of the molar value. Read-outs that look alike come from different tables or passages of the source.

Assays:
MMP and/or ADAM enzyme = experiment: Duration of inhibitory effect on the enzymes inhibited; type: biochemical, human
Experimental: Previously, it has been established that cis-2-aminocyclohexycarbamoyl phosphonic acid (cis-ACCP), listed for the purpose of comparison in Tables 2 and 3 as “control”, was an effective nontoxic, in vivo active antimetastatic compound. […] In the study leading to the subject invention, it was determined that the inhibitory effect could be, and in fact was prolonged by substituting carbamoylphosphonic functionality with aromatic ring functionality as in the compounds of the invention. […]
(§1) Recombinant enzymes, human MMP-1, MMP-2, MMP-3, MMP-8, MMP-9, MMP-12, MMP-13 and TACE (R&D Systems, Minneapolis) were incubated at four different concentrations with the relevant colorimetric or fluorescent peptide substrates (R&D Systems, Minneapolis) for 3 h. The tested compounds were added at four to six different concentrations and the inhibitory potencies expressed in a colorimetric change, was measured by an ELISA or fluorimeter.

human MMP-8 = biological target: T1, human MMP-8 (Homo sapiens, UniProt P22894); experiment: Determination of MMP inhibitory potency, MMP-8; type: biochemical; conditions: for IC50: read-out: IC50 (μM) on MMP-8
T1 construct: purchased R&D Systems, Minneapolis
Experimental: as §1

human MMP-3 = biological target: T2, human MMP-3 (Homo sapiens, UniProt P08254); experiment: Determination of MMP inhibitory potency, MMP-3; type: biochemical; conditions: for IC50: read-out: IC50 (μM) on MMP-3
T2 construct: purchased R&D Systems, Minneapolis
Experimental: as §1

human MMP-12 = biological target: T3, human MMP-12 (Homo sapiens, UniProt P39900); experiment: Determination of MMP inhibitory potency, MMP-12; type: biochemical; conditions: for IC50: read-out: IC50 (μM) on MMP-12
T3 construct: purchased R&D Systems, Minneapolis
Experimental: as §1

human MMP-9 = biological target: T4, human MMP-9 (Homo sapiens, UniProt P14780); experiment: Determination of MMP inhibitory potency, MMP-9; type: biochemical; conditions: for IC50: read-out: IC50 (μM) on MMP-9
T4 construct: purchased R&D Systems, Minneapolis
Experimental: as §1

tumor invasion = experiment: In vitro model of tumor invasion (Boyden chamber, reconstituted basement membrane); type: cell-based; conditions: read-out: % Invasion-Inhibition by 50 μM drug
Experimental: The compound was also evaluated in an in vivo experimental model of metastasis using B16F10 tumor cells in C57B1 mice. […] The assay was carried out in a Boyden chamber with a reconstituted basement membrane (Matrigal).

human MMP-13 = biological target: T5, human MMP-13 (Homo sapiens, UniProt P45452); experiment: Determination of MMP inhibitory potency, MMP-13; type: biochemical; conditions: for IC50: read-out: IC50 (μM) on MMP-13
T5 construct: purchased R&D Systems, Minneapolis
Experimental: as §1

MMP-2 [1] = biological target: T6, MMP-2 (Homo sapiens, UniProt P08253); experiment: Determination of MMP inhibitory potency, MMP-2; type: biochemical; set-up: purchased R&D Systems, Minneapolis; conditions: for IC50: read-out: IC50 (μM) on MMP-2
T6 sequence (P08253 110-660): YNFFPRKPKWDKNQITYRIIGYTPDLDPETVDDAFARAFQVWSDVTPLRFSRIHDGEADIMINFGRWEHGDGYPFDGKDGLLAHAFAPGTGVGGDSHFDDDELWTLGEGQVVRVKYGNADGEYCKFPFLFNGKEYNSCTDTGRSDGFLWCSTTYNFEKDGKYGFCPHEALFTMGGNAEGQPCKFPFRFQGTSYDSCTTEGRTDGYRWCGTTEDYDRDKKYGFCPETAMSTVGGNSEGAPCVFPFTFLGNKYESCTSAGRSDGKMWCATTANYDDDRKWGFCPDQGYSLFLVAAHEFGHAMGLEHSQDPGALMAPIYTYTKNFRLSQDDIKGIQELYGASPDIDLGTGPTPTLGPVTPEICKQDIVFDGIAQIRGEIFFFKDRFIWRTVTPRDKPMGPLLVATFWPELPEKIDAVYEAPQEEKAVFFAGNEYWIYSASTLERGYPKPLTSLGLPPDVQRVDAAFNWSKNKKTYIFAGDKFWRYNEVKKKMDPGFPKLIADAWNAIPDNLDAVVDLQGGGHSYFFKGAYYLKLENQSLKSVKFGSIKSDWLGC
Experimental: as §1

TACE = biological target: T7, TACE (Homo sapiens, UniProt P78536); experiment: Determination of inhibitory potency, TACE; type: biochemical; conditions: for IC50: read-out: IC50 (μM) on TACE
T7 construct: purchased R&D Systems, Minneapolis
Experimental: as §1

MMP-2 [2] = biological target: T6, MMP-2; experiment: Time dependent inhibition of MMP-2 (period of inhibition); type: biochemical
B16F10 tumor cells = experiment: Murine melanoma model of experimental metastasis; type: in vivo, C57B1 mice; conditions: for % reduction in lung metastases relative to control: daily for three weeks, B16F10 cells i.v.
[3] = mouse, in vivo

T7 sequence (P78536 215-824): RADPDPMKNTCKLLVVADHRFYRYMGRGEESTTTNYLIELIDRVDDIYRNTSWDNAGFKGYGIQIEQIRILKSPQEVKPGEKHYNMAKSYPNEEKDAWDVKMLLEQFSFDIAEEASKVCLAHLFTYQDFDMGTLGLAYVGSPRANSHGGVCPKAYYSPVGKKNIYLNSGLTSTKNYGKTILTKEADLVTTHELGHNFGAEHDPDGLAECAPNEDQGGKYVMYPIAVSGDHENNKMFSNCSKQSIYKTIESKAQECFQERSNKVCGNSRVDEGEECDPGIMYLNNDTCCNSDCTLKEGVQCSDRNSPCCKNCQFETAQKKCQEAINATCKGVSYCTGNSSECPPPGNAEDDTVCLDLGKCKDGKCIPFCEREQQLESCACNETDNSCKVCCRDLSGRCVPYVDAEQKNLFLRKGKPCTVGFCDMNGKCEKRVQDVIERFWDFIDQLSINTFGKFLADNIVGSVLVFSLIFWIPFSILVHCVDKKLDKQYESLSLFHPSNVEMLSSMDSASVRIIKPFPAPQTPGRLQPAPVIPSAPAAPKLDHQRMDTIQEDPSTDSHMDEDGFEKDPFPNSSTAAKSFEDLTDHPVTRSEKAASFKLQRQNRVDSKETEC
T2 sequence (P08254 100-477): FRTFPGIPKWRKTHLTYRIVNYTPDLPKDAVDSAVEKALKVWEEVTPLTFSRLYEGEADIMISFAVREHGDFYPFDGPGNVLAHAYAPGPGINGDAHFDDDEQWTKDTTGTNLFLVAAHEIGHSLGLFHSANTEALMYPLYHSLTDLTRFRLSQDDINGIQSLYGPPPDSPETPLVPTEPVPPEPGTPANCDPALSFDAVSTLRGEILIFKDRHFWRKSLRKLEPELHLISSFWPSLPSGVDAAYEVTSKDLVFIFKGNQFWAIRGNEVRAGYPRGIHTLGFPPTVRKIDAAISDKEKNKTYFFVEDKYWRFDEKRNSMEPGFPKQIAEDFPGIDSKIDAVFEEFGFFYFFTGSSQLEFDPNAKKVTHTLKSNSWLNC
T4 sequence (P14780 94-707): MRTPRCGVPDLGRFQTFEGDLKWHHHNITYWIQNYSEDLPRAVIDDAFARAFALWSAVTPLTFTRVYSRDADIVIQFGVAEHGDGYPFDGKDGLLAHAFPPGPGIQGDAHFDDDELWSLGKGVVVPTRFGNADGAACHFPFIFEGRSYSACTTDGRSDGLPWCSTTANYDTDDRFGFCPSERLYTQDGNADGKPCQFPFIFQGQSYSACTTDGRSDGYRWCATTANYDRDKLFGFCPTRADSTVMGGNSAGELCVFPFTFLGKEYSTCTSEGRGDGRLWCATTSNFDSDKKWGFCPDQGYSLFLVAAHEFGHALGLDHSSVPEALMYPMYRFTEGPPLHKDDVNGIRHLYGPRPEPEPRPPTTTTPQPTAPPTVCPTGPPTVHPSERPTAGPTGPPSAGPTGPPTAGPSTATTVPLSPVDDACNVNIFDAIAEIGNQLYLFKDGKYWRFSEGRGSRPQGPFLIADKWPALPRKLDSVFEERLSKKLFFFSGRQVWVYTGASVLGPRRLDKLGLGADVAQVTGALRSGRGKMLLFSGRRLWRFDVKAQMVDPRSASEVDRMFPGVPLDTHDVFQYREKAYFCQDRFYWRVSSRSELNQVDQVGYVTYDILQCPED
T1 sequence (P22894 101-467): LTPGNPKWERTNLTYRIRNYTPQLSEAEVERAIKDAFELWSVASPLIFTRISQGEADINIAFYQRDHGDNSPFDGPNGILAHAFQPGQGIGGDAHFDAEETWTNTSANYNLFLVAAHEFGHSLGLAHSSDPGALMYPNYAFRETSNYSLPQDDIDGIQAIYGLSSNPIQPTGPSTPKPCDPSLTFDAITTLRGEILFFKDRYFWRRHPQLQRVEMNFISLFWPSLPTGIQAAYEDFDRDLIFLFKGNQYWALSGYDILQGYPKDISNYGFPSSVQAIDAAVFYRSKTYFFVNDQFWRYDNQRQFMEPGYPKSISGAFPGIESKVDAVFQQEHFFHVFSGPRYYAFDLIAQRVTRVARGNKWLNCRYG
T3 sequence (P39900 106-470): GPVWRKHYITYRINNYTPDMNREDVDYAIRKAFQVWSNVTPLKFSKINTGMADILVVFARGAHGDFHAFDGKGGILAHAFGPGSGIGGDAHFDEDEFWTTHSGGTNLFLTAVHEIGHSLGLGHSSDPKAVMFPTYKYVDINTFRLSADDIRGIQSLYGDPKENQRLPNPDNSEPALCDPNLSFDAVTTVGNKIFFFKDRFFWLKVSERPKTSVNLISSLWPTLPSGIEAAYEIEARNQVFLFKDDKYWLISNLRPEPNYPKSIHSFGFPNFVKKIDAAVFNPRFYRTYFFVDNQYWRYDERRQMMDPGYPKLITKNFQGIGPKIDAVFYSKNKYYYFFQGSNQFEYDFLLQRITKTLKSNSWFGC

Row | Duration of inhibitory effect (MMP and/or ADAM enzyme) | IC50 (human MMP-8) | IC50 (human MMP-9) | IC50 (MMP-2 [1]) | IC50 (TACE) | SMILES | inhibition at 50 µM (tumor invasion) | IC50 (human MMP-3) | IC50 (human MMP-12) | IC50 (human MMP-13) | further results
1 | >180 min | 12 µM | 12 µM | 15 µM | 12 µM | NC(CNC(=O)P(=O)(O)O)CNS(=O)(=O)c1ccc(Oc2ccccc2)cc1 (racemic) [Compound 8, 2-amino-1-(4-phenoxybenzenesulfonamido)-3-[phosphonoformamido]propane] | – | > 100 µM | 15 µM | > 100 µM | duration of affinity to all the enzymes inhibited (MMP and/or ADAM enzyme): > 3 h
2 | >180 min | > 100 µM | > 100 µM | 15 µM | > 100 µM | N[C@@H](CNC(=O)P(=O)(O)O)CNS(=O)(=O)c1ccc(Oc2ccccc2)cc1 [Compound 8S, (S)-N-[2-amino-3-(4-phenoxybenzenesulfonamido)propyl]carbamoylphosphonic acid] | > 100% | – | > 100 µM | > 100 µM | –
3 | >180 min | 15 µM | > 100 µM | 20 µM | > 100 µM | N[C@H](CNC(=O)P(=O)(O)O)CNS(=O)(=O)c1ccc(Oc2ccccc2)cc1 [Compound 8R, (R)-N-[2-amino-3-(4-phenoxybenzenesulfonamido)propyl]carbamoylphosphonic acid] | > 100% | > 100 µM | 12 µM | > 100 µM | –
4 | >180 min | > 100 µM | > 100 µM | > 100 µM | 17 µM | O=C(NCCCCCCCCNS(=O)(=O)c1ccc(Oc2ccccc2)cc1)P(=O)(O)O [Compound 7] | – | > 100 µM | > 100 µM | > 100 µM | –
5 | >180 min | > 100 µM | > 100 µM | 20 µM | > 100 µM | O=C(NCCNCCNS(=O)(=O)c1ccc(Oc2ccccc2)cc1)P(=O)(O)O [Compound 10, N-{2-[2-(4-Phenoxybenzenesulfonylamino)-ethylamino]-ethyl}-carbamoylphosphonic acid] | – | > 100 µM | – | – | melting point: 224 to 225 °C
6 | >180 min | > 100 µM | > 100 µM | > 100 µM | 22 µM | O=C(NCCCCCCCNS(=O)(=O)c1ccc(Oc2ccccc2)cc1)P(=O)(O)O [Compound 6] | – | > 100 µM | > 100 µM | > 100 µM | –

Row | SMILES | Duration of inhibitory effect (MMP and/or ADAM enzyme) | IC50 (human MMP-8) | IC50 (human MMP-9) | IC50 (MMP-2 [1]) | IC50 (TACE) | inhibition at 50 µM (tumor invasion) | IC50 (human MMP-3) | IC50 (human MMP-12) | IC50 (human MMP-13) | further results
7 | N[C@H]1CCCC[C@H]1NC(=O)P(=O)(O)O (relative stereo) [YK-162, cis-2-aminocyclohexylcarbamoyl phosphonic acid, reference compound] | <30 min | – | – | – | – | 15% | – | – | – | pIC50 (human MMP-8): < 4.00; pIC50 (human MMP-3): < 4.00; pIC50 (human MMP-12): < 4.00; pIC50 (human MMP-9): 4.70; pIC50 (human MMP-13): < 4.00; pIC50 (MMP-2 [1]): 5.40; pIC50 (TACE): < 4.00; period of MMP-2 inhibition (MMP-2 [2]; MMP-2): about 30 minutes
8 | O=C(NCCCNS(=O)(=O)c1ccc(Oc2ccccc2)cc1)P(=O)(O)O [Compound 2, 1-[4-phenoxybenzenesulfonamido]-3-[phosphonoformamido]propane] | >180 min | > 100 µM | > 100 µM | 10 µM | > 100 µM | 49% | 35 µM | > 100 µM | 25 µM | melting point: 165 to 168 °C
9 | O=C(NCCNS(=O)(=O)c1ccc(Oc2ccccc2)cc1)P(=O)(O)O [Compound 1, 1-[4-phenoxybenzenesulfonamido]-2-[phosphonoformamido]ethane] | >180 min | > 100 µM | > 100 µM | 15 µM | 6 µM | 70% | > 100 µM | 60 µM | 55 µM | inhibition in metastasis formation (number of metastatic foci in the lung) (B16F10 tumor cells; B16F10 tumor cells in C57B1 mice): > 80%; activity against MMP-8 (human MMP-8): reduced or no activity; activity against MMP-3 (human MMP-3): reduced or no activity; activity against MMP-9 (human MMP-9): reduced or no activity; activity against TACE (TACE): moderate activity; period as active inhibitor (time dependent inhibition, FIG. 1) (MMP-2 [2]): at least 3 hours
10 | O=C(NCCCCCCNS(=O)(=O)c1ccc(Oc2ccccc2)cc1)P(=O)(O)O [Compound 5, 1-[4-Phenoxybenzenesulfonamido]-6-[phosphonoformamido]hexane] | – | > 100 µM | > 100 µM | 5 µM | 20 µM | 77% | > 100 µM | > 100 µM | 80 µM | % reduction in lung metastases relative to control (B16F10 tumor cells; Intraperitoneal, 25 mg/kg): 90%; % reduction in lung metastases relative to control (B16F10 tumor cells; Per-oral, 50 mg/kg): 50%; % reduction in lung metastases relative to control (B16F10 tumor cells; Per-oral, 150 mg/kg): 86%; toxic effects in mice [3]: without any toxic effects; toxicity in mice (text, FIG. 5) [3]: toxic; Toxicity in mice (Table 4) ([3]; ip, 50 mg/kg): Toxic
11 | O=C(NCCCCNS(=O)(=O)c1ccc(Oc2ccccc2)cc1)P(=O)(O)O [Compound 3, 1-[4-phenoxybenzenesulfonamido]-4-[phosphonoformamido]butane] | >180 min | > 100 µM | > 100 µM | 7 µM | > 100 µM | 60% | > 100 µM | > 100 µM | 25 µM | melting point: 143 to 145 °C
12 | O=C(NCCCCCNS(=O)(=O)c1ccc(Oc2ccccc2)cc1)P(=O)(O)O [Compound 4] | – | > 100 µM | > 100 µM | 5 µM | > 100 µM | 62% | > 100 µM | 80 µM | 60 µM | inhibition of metastasis formation (B16F10 tumor cells; 50 mg/kg): > 80%; % reduction in lung metastases relative to control (B16F10 tumor cells; Intraperitoneal, 25 mg/kg): 76%; % reduction in lung metastases relative to control (B16F10 tumor cells; Intraperitoneal, 50 mg/kg): 90%; % reduction in lung metastases relative to control (B16F10 tumor cells; Per-oral, 50 mg/kg): 80%; % reduction in lung metastases relative to control (B16F10 tumor cells; Per-oral, 150 mg/kg): 86%
